In patent publication US20210274823A1, “NOVEL TRITERPENE-GLYCOSIDES AS SWEETENERS OR SWEETENER ENHANCER” (priority 2017, published 2021):

Experiment: Organoleptic test of the compounds of formula (I) against sucrose
Parameters: key to sweetness compared to sucrose: 3: sweeter than the control solution; 2: sweetness comparable with the control solution; 1: less sweet than the control solution but still sweet
Conditions: panel of 3-4 panelists; for sweetness compared to sucrose: test compound dissolved in water (Evian) at 400 ppm, control sucrose 20 g/l; for Comment (taste impression): test compound dissolved in water at 400 ppm
Procedure: The isolated pure compounds were dissolved in non-carbonated mineral water (“Evian”) in a concentration of 0.4 mg/ml (400 ppm). The sweet taste of each sample was compared by a panel of 3-4 panelists with a solution of sucrose in a concentration of 20 g/l.

Row | SMILES | sweetness compared to sucrose | Comment (taste impression)
1 | CC(C)(/C=C/C[C@@](C)(O[C@@H]1O[C@H](CO)[C@@H](O)[C@H](O)[C@H]1O)[C@H]1CC[C@]2(C)[C@@H]1[C@H](O)C[C@@H]1[C@@]3(C)C[C@@H](O)[C@H](O[C@@H]4O[C@H](CO)[C@@H](O)[C@H](O)[C@H]4O[C@@H]4O[C@H](CO)[C@@H](O)[C@H](O)[C@H]4O)C(C)(C)[C@@H]3CC[C@]12C)OO (stereo in doubt) [Compound E] | 3 | –
2 | CC(C)=CCC[C@](C)(O[C@@H]1O[C@H](CO[C@@H]2OC[C@@H](O)[C@H](O)[C@H]2O)[C@@H](O)[C@H](O)[C@H]1O)[C@H]1CC[C@]2(C)[C@@H]1[C@H](O)CC1[C@@]3(C)C[C@@H](O)[C@H](O[C@@H]4O[C@H](CO)[C@@H](O)[C@H](O)[C@H]4O[C@@H]4O[C@H](CO)[C@@H](O)[C@H](O)[C@H]4O)C(C)(C)C3CC[C@]12C (stereo partly drawn) [Compound A] | 2 | Slightly hot
3 | CC(C)=CCC[C@](C)(O[C@@H]1O[C@H](CO)[C@@H](O)[C@H](O)[C@H]1O)[C@H]1CC[C@]2(C)[C@@H]1[C@H](O)CC1[C@@]3(C)C[C@@H](O)[C@H](O[C@@H]4O[C@H](CO)[C@@H](O)[C@H](O)[C@H]4O[C@@H]4O[C@H](CO)[C@@H](O)[C@H](O)[C@H]4O)C(C)(C)C3CC[C@]12C (stereo partly drawn) [Compound B] | 3 | Slightly bitter
4 | C=C(C)C(CC[C@](C)(O[C@@H]1O[C@H](CO[C@@H]2OC[C@@H](O)[C@H](O)[C@H]2O)[C@@H](O)[C@H](O)[C@H]1O)[C@H]1CC[C@]2(C)[C@@H]1[C@H](O)CC1[C@@]3(C)C[C@@H](O)[C@H](O[C@@H]4O[C@H](CO)[C@@H](O)[C@H](O)[C@H]4O[C@@H]4O[C@H](CO)[C@@H](O)[C@H](O)[C@H]4O)C(C)(C)C3CC[C@]12C)OO (stereo partly drawn) [Compound C] | 2 | –
5 | CC(C)(O)/C=C/C[C@](C)(O[C@@H]1O[C@H](CO)[C@@H](O)[C@H](O)[C@H]1O)[C@H]1CC[C@]2(C)C1[C@H](O)CC1[C@@]3(C)C[C@@H](O)[C@H](O[C@@H]4O[C@H](CO)[C@@H](O)[C@H](O)[C@H]4O[C@@H]4O[C@H](CO)[C@@H](O)[C@H](O)[C@H]4O)C(C)(C)C3CC[C@]12C (stereo partly drawn) [Compound D] | 3 | –
6 | CC(C)(/C=C/C[C@](C)(O[C@@H]1O[C@H](CO[C@@H]2OC[C@@H](O)[C@H](O)[C@H]2O)[C@@H](O)[C@H](O)[C@H]1O)[C@H]1CC[C@]2(C)C1[C@H](O)CC1[C@@]3(C)C[C@@H](O)[C@H](O[C@@H]4O[C@H](CO)[C@@H](O)[C@H](O)[C@H]4O[C@@H]4O[C@H](CO)[C@@H](O)[C@H](O)[C@H]4O)C(C)(C)C3CC[C@]12C)OO (stereo partly drawn) [Compound G] | 2 | Slightly bitter
7 | CC(C)=CCC[C@](C)(O[C@@H]1O[C@H](CO)[C@@H](O)[C@H](O)[C@H]1O)[C@H]1CC[C@]2(C)[C@@H]1[C@H](O)CC1[C@@]3(C)C[C@@H](O)[C@H](O[C@@H]4O[C@H](COC5OCC(O)C(O)C5O)[C@@H](O)[C@H](O)[C@H]4O[C@@H]4O[C@H](CO)[C@@H](O)[C@H](O)[C@H]4O)C(C)(C)C3CC[C@]12C (stereo partly drawn) [Compound H] | 3 | Slightly bitter
8 | C=C(C)C(O)CC[C@](C)(O[C@@H]1O[C@H](CO[C@@H]2OC[C@@H](O)[C@H](O)[C@H]2O)[C@@H](O)[C@H](O)[C@H]1O)[C@H]1CC[C@]2(C)[C@@H]1[C@H](O)CC1[C@@]3(C)C[C@@H](O)[C@H](O[C@@H]4O[C@H](CO)[C@@H](O)[C@H](O)[C@H]4O[C@@H]4O[C@H](CO)[C@@H](O)[C@H](O)[C@H]4O)C(C)(C)C3CC[C@]12C (stereo partly drawn) [Compound I] | 2 | –
9 | CC1(C)C2CC[C@]3(C)C(C[C@@H](O)[C@@H]4[C@@H]([C@](C)(CCCO)O[C@@H]5O[C@H](CO)[C@@H](O)[C@H](O)[C@H]5O)CC[C@]43C)[C@@]2(C)C[C@@H](O)[C@@H]1O[C@@H]1O[C@H](CO)[C@@H](O)[C@H](O)[C@H]1O[C@@H]1O[C@H](CO)[C@@H](O)[C@H](O)[C@H]1O (stereo partly drawn) [Compound J] | 2 | –
10 | CC(CO)C(=O)CC[C@](C)(O[C@@H]1O[C@H](CO)[C@@H](O)[C@H](O)[C@H]1O)[C@H]1CC[C@]2(C)[C@@H]1[C@H](O)CC1[C@@]3(C)C[C@@H](O)[C@H](O[C@@H]4O[C@H](CO)[C@@H](O)[C@H](O)[C@H]4O[C@@H]4O[C@H](CO)[C@@H](O)[C@H](O)[C@H]4O)C(C)(C)C3CC[C@]12C (stereo partly drawn) [Compound K] | 3 | –
11 | CC(CO)C(=O)CC[C@](C)(O[C@@H]1O[C@H](CO)[C@@H](O)[C@H](O)[C@H]1O)[C@H]1CC[C@]2(C)[C@@H]1[C@H](O)CC1[C@@]3(C)C[C@@H](O)[C@H](O[C@@H]4O[C@H](CO)[C@@H](O)[C@H](O)[C@H]4O[C@@H]4O[C@H](CO)[C@@H](O)[C@H](O)[C@H]4O)C(C)(C)C3CC[C@]12C (stereo partly drawn) [Compound L] | 2 | –
